{"source": "PubChem BioAssay AID214", "about": "(DTP/NCI, 2004)", "tested_on": "B6C3F1 mice, colon carcinoma 38 s.c., T/C", "assay": "NCI In Vivo Anticancer Drug Screen. Data for tumor model Colon Carcinoma 38 (subcutaneous) in B6C3F1 mice", "conditions": "endpoint: median tumor weight (est.), schedule: Q07DX002 (ip), higher = larger tumour", "description": "The antitumor activity of compounds was measured in mice bearing transplantable tumors. Survival or tumor size were measured and the results are expressed as the measurement made in the treated group (T) divided by the measurement made in the vehicle treated control group (C). The tumor model used in this assay is Colon Carcinoma 38 (subcutaneous) in B6C3F1 mice", "key": {"[1]": {"conditions": "dose: 50.0 mg/kg/injection, vehicle: saline"}, "[2]": {"conditions": "dose: 100.0 mg/kg/injection, vehicle: saline"}, "[3]": {"conditions": "dose: 50.0 mg/kg/injection, vehicle: saline with Tween-80"}, "[4]": {"conditions": "dose: 200.0 mg/kg/injection, vehicle: saline with Tween-80"}, "[5]": {"conditions": "dose: 100.0 mg/kg/injection, vehicle: saline with Tween-80"}, "[6]": {"conditions": "dose: 100.0 mg/kg/injection, vehicle: Klucel (hydroxypropylcellulose) (HPC)"}, "[7]": {"conditions": "dose: 200.0 mg/kg/injection, vehicle: Klucel (hydroxypropylcellulose) (HPC)"}, "[8]": {"conditions": "dose: 400.0 mg/kg/injection, vehicle: Klucel (hydroxypropylcellulose) (HPC)"}}, "note": "Records with an inconclusive call do not appear.", "data": [{"smiles": "NC(=O)c1c[se]c(C2OC(CO)C(O)C2O)n1", "note": "(stereo unspecified)", "values": [{"measurement": "T/C", "setting": "[1]", "value": "90 % of control"}, {"measurement": "T/C", "setting": "[2]", "value": "87 % of control"}, {"measurement": "T/C", "setting": "dose: 200.0 mg/kg/injection, vehicle: saline", "value": "84 % of control"}, {"measurement": "T/C", "setting": "dose: 400.0 mg/kg/injection, vehicle: saline", "value": "92 % of control"}, {"measurement": "T/C", "setting": "dose: 800.0 mg/kg/injection, vehicle: saline", "value": "56 % of control"}]}, {"smiles": "Nc1ccc2ccc(NS(=O)(=O)N3CCCCC3)cc2c1", "values": [{"measurement": "T/C", "setting": "[3]", "value": "108 % of control"}, {"measurement": "T/C", "setting": "[4]", "value": "39 % of control"}, {"measurement": "T/C", "setting": "dose: 400.0 mg/kg/injection, vehicle: saline with Tween-80", "value": "15 % of control"}]}, {"smiles": "Nc1ccn(C2OC(CO)C(O)C2O)c(=O)n1", "note": "(stereo unspecified)", "values": [{"measurement": "T/C", "setting": "dose: 300.0 mg/kg/injection, vehicle: saline", "value": "70 % of control"}, {"measurement": "T/C", "setting": "dose: 600.0 mg/kg/injection, vehicle: saline", "value": "90 % of control"}, {"measurement": "T/C", "setting": "dose: 1200.0 mg/kg/injection, vehicle: saline", "value": "56 % of control"}, {"measurement": "T/C", "setting": "dose: 2400.0 mg/kg/injection, vehicle: saline", "value": "64 % of control"}]}, {"smiles": "O=[N+]([O-])c1ccc(N2CCOCC2)c2c1no[n+]2[O-]", "values": [{"measurement": "T/C", "setting": "[3]", "value": "165 % of control"}, {"measurement": "T/C", "setting": "[5]", "value": "98 % of control"}, {"measurement": "T/C", "setting": "[4]", "value": "103 % of control"}]}, {"smiles": "Cc1cc(NCCCCCCCCNc2cc(C)nc3cc(N(C)C)ccc23)c2ccc(N(C)C)cc2n1", "values": [{"measurement": "T/C", "setting": "dose: 3.12 mg/kg/injection, vehicle: distilled water + Tween-80 + alcohol", "value": "105 % of control"}, {"measurement": "T/C", "setting": "dose: 6.25 mg/kg/injection, vehicle: distilled water + Tween-80 + alcohol", "value": "78 % of control"}, {"measurement": "T/C", "setting": "dose: 12.5 mg/kg/injection, vehicle: distilled water + Tween-80 + alcohol", "value": "69 % of control"}, {"measurement": "T/C", "setting": "dose: 25.0 mg/kg/injection, vehicle: distilled water + Tween-80 + alcohol", "value": "160 % of control"}]}, {"smiles": "CC(=O)OC1C(O)C(C)OC(OC2C(OC(=O)C3CCC4C(C3)OC3(CC(OC(=O)/C=C/c5ccccc5)C(C)CO3)C43CO3)OC(C)C(O)C2OC(C)=O)C1O", "note": "(stereo unspecified)", "values": [{"measurement": "T/C", "setting": "dose: 3.75 mg/kg/injection, vehicle: distilled water + Tween-80", "value": "93 % of control"}, {"measurement": "T/C", "setting": "dose: 7.5 mg/kg/injection, vehicle: distilled water + Tween-80", "value": "95 % of control"}, {"measurement": "T/C", "setting": "dose: 15.0 mg/kg/injection, vehicle: distilled water + Tween-80", "value": "64 % of control"}, {"measurement": "T/C", "setting": "dose: 30.0 mg/kg/injection, vehicle: distilled water + Tween-80", "value": "168 % of control"}, {"measurement": "T/C", "setting": "dose: 60.0 mg/kg/injection, vehicle: distilled water + Tween-80", "value": "168 % of control"}]}, {"smiles": "CC(C)NCC(O)COc1ccc(O)c(O)c1", "note": "(stereo unspecified)", "values": [{"measurement": "T/C", "setting": "[1]", "value": "97 % of control"}, {"measurement": "T/C", "setting": "[2]", "value": "94 % of control"}]}, {"smiles": "CCCCCc1cc(O)c2c(c1)OC(C)(C)[C@@H]1CCC(C)=C[C@@H]21", "values": [{"measurement": "T/C", "setting": "dose: 200.0 mg/kg/injection, vehicle: other", "value": "81 % of control"}, {"measurement": "T/C", "setting": "dose: 400.0 mg/kg/injection, vehicle: other", "value": "98 % of control"}]}, {"smiles": "O=C1CC2(C(=O)N1CN1CCOCC1)c1ccccc1-c1ccccc12", "values": [{"measurement": "T/C", "setting": "dose: 50.0 mg/kg/injection, vehicle: Klucel (hydroxypropylcellulose) (HPC)", "value": "99 % of control"}, {"measurement": "T/C", "setting": "[6]", "value": "44 % of control"}, {"measurement": "T/C", "setting": "[7]", "value": "107 % of control"}, {"measurement": "T/C", "setting": "[8]", "value": "79 % of control"}, {"measurement": "T/C", "setting": "dose: 800.0 mg/kg/injection, vehicle: Klucel (hydroxypropylcellulose) (HPC)", "value": "56 % of control"}]}, {"smiles": "ClCc1ccc2ccccc2n1", "values": [{"measurement": "T/C", "setting": "[3]", "value": "93 % of control"}, {"measurement": "T/C", "setting": "[5]", "value": "86 % of control"}, {"measurement": "T/C", "setting": "[4]", "value": "89 % of control"}]}, {"smiles": "CC[C@H](CC[C@@H](C)C1CC[C@H]2[C@@H]3CC=C4C[C@@H](OP(=O)(N5CC5)N5CC5)CC[C@]4(C)[C@H]3CC[C@]12C)C(C)C", "note": "(stereo partly specified)", "values": [{"measurement": "T/C", "setting": "dose: 225.0 mg/kg/injection, vehicle: saline with Tween-80", "value": "246 % of control"}, {"measurement": "T/C", "setting": "dose: 450.0 mg/kg/injection, vehicle: saline with Tween-80", "value": "205 % of control"}, {"measurement": "T/C", "setting": "dose: 900.0 mg/kg/injection, vehicle: saline with Tween-80", "value": "115 % of control"}]}, {"smiles": "CSCS(=O)C[C@H](CO)NC(=O)/C=C/c1c(C)[nH]c(=O)[nH]c1=O", "note": "(stereo partly specified)", "values": [{"measurement": "T/C", "setting": "dose: 2.0 mg/kg/injection, vehicle: saline", "value": "74 % of control"}, {"measurement": "T/C", "setting": "dose: 4.0 mg/kg/injection, vehicle: saline", "value": "66 % of control"}]}, {"smiles": "CSc1ncc2ncn(C3OC(CO)C(O)C3O)c2n1", "note": "(stereo unspecified)", "values": [{"measurement": "T/C", "setting": "[6]", "value": "120 % of control"}, {"measurement": "T/C", "setting": "[7]", "value": "78 % of control"}, {"measurement": "T/C", "setting": "[8]", "value": "120 % of control"}]}, {"smiles": "COc1cc2c(ccc3c4cc(OC)c(OC)cc4c[n+](C)c23)cc1O", "values": [{"measurement": "T/C", "setting": "dose: 100.0 mg/kg/injection, vehicle: suspension in saline", "value": "89 % of control"}, {"measurement": "T/C", "setting": "dose: 200.0 mg/kg/injection, vehicle: suspension in saline", "value": "81 % of control"}]}]}
